# Source: patent publication US20010055541A1, “Porous material disinfection method” (priority 2000, published 2001)
# How the values were obtained:
# [1] = test system: Bacillus stearothermophilus (ATCC 7953); test: Resistance of six organisms to sterilization with ozone gas (Example I); conditions: six organisms compared, cell density 10^4-10^7, minimum of three runs
# [2] = test system: Bacillus subtilis v. globigii spores; conditions: within 1.5-2 minutes, water purged with 3% ozone by weight; cited from earlier work
# [3] = test system: human immunodeficiency virus (HIV); conditions: non-toxic concentration of 4 μg ozone per ml of serum; cited from earlier work
# Candida tropicalis = Candida tropicalis in 0.30 minutes from ozone-demand free water; cited from earlier work
# Naegleria gruberi = Naegleria gruberi in 1.1 minutes from ozone-demand free phosphate buffer solution; cited from earlier work
# Poliovirus type I = Poliovirus type I in 9 minutes from activated sludge effluent; cited from earlier work
# Escherichia coli = Escherichia coli in 19 minutes from raw waste water; cited from earlier work
smiles,measurement,setting,value
O=[O+][O-] [ozone],resistance of organism to ozone exposure (ability to maintain viability),[1],most resistant organism
same,log reduction of bacterial spores,[2],four-log reduction
same,log reduction in the infectious titer,[3],six-log reduction
same,ozone concentration reported for a 99% reduction,Candida tropicalis,0.02 mg/L
same,ozone concentration reported for a 99% reduction,Naegleria gruberi,1.2 mg/L
same,ozone concentration reported for a 99% reduction,Poliovirus type I,0.2 mg/L
same,ozone concentration reported for a 99% reduction,Escherichia coli,2.2 mg/L
